Legend:
[1] = molecular target: Adrenergic receptor beta; ADRB1 & ADRB2 (Homo sapiens) (UniProt P08588+P07550); conditions: Canis lupus familiaris
Description: Apparent pA2 value for blockade of isoproterenol-induced increase in heart rate evaluated against beta adrenergic receptor in anesthetized dogs

[2] = molecular target: Beta-1 adrenergic receptor (Homo sapiens) (UniProt P08588); conditions: Canis lupus familiaris
Description: Apparent pA2 value for myocardial contractile force (beta-1) evaluated against beta-1 adrenergic receptor in anesthetized dogs

[3] = molecular target: Beta-2 adrenergic receptor (Canis lupus familiaris) (UniProt P54833); experiment: Apparent pA2 value for isoproterenol-induced vasodilation (beta2) evaluated against beta-2 adrenergic receptor in anesthetized dogs
Beta-2 adrenergic receptor (Canis lupus familiaris), sequence (P54833 whole entry, looked up): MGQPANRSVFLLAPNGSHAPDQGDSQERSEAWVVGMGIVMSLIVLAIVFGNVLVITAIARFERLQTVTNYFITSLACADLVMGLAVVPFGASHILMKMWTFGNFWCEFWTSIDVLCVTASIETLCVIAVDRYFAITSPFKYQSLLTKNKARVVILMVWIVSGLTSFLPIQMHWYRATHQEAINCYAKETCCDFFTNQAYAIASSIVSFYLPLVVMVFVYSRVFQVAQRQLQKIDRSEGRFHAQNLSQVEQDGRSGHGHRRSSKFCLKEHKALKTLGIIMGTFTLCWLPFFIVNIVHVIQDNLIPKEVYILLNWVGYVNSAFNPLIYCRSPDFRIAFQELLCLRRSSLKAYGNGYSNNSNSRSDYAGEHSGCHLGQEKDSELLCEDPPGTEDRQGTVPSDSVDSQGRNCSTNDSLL

Adrenergic receptor beta; ADRB1 & ADRB2 (Homo sapiens), sequence (P07550 whole entry, looked up): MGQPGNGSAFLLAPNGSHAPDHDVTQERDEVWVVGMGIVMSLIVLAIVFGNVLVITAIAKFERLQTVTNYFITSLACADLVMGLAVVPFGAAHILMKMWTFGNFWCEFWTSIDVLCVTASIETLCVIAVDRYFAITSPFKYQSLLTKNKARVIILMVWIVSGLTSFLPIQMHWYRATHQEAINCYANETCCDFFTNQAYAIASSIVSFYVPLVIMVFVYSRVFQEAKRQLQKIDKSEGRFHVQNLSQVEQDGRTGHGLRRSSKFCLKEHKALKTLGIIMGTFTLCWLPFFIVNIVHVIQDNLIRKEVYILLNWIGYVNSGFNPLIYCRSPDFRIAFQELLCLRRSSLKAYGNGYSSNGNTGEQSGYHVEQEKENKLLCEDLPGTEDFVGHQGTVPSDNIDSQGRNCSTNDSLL
Adrenergic receptor beta; ADRB1 & ADRB2 (Homo sapiens), sequence (P08588 whole entry, looked up): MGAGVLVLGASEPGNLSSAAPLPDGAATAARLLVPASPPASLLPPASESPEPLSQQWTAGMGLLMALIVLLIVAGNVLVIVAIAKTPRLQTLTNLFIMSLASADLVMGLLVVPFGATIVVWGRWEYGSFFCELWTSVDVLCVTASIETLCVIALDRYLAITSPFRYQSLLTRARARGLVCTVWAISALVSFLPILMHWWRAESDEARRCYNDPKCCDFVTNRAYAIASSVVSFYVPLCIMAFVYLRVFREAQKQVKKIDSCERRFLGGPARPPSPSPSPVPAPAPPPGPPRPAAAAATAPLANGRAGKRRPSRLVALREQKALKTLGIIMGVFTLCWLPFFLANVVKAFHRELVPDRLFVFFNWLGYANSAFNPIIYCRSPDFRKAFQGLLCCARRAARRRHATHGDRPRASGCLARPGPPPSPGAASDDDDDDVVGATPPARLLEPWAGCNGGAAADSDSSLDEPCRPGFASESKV
Beta-1 adrenergic receptor (Homo sapiens), sequence (P08588 whole entry, looked up): as above

- Contractile force [2]: 4.75
- Vasodilation [3]: 4.82
SMILES: CC(C)NCC(O)COc1ccc(O)c2ccccc12 (stereo not drawn)
- Heart rate [1]: 5.12

Source: ChEMBL document CHEMBL1123020
